Drawing on patent US12473295B2, “Substituted straight chain spiro derivatives” (Janssen Pharmaceutica NV, priority 2019, dated 2025), this text covers IC50 for 8 compounds.

pIC50: −log10 of the molar value. Counter-ions that a name gives are not always drawn. Like-named read-outs stand apart in the source and are kept apart here. Some results are limits rather than exact numbers.

In general, pIC50 refers to the IC50 on a negative log10 scale, so that one unit is a factor of ten.

Test [1] has as its target menin/MLL (terbium chelate-labeled menin, FITC-MBM1 peptide) (Homo sapiens (Human), UniProt O00255). Description: Menin/MLL homogenous time-resolved fluorescence (HTRF) assay.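 Also: IC50 from percent inhibition of HTRF signal, normalized between wells without competitor and wells with a saturating competitor that displaces FITC-MBM1 from His-tagged menin.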 In kind it is binding. In general terms: In TR-FRET formats the signal depends on donor and acceptor labels being close together.
Another test relates to MOLM14 cells. The test is described as follows: Proliferation assay (spheroid growth, 8 days), MOLM14.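 Also: spheroid size read as confluence by live-cell imaging, compounds added at a range of concentrations with 0.3% DMSO, DMSO-treated wells = 0%, highest reference dose = low control.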 The conditions noted are these: MOLM14, 8 days, read-out: spheroid assay_OneTime MOLM14 IC50. In kind it is cell-based, human.
Another test concerns OCI-AML3 cells. Description: Proliferation assay (spheroid growth, 8 days), OCI-AML3. It counts as cell-based, human. Particulars: OCI-AML3, 8 days. Here is the method: The anti-proliferative effect of menin/MLL protein/protein interaction inhibitor test compounds was assessed in human leukemia cell lines. The cell line MOLM14 harbors a MLL translocation and expresses the MLL fusion protein MLL-AF9, respectively, as well as the wildtype protein from the second allele. OCI-AML3 cells that carry the NPM1c gene mutation were also tested. […] KO-52 was used as a control cell line containing two MLL (KMT2A) wildtype alleles in order to exclude compounds that display general cytotoxic effects.
KO-52 and OCI-AML3 cell lines were propagated in alpha-MEM (Sigma Aldrich) supplemented with 20% heat-inactivated fetal bovine serum (HyClone), 2 mM L-glutamine (Sigma Aldrich) and 50 μg/ml gentamycin (Gibco).
In order to assess the anti-proliferative effects, 200 MOLM14 cells, 200 OCI-AML3 cells or 300 KO-52 cells were seeded in 200 μl media per well in […] round bottom, ultra-low attachment plates (Costar, catalogue number 7007). Cell seeding numbers were chosen based on growth curves to ensure linear growth throughout the experiment. Test compounds were added at different concentrations and the DMSO content was normalized to 0.3%. Cells were incubated for 8 days at 37° C. and 5% CO2. Spheroid like growth was measured in real-time by live-cell imaging (IncuCyteZOOM, Essenbio, 4× objective) acquiring images at day 8. Confluence (%) as a measure of spheroid size was determined using an integrated analysis tool.
In order to determine the effect of the test compounds over time, the confluence in each well as a measure of spheroid size, was calculated. Confluence of the highest dose of a reference compound was used as baseline for the LC (Low control) and the confluence of DMSO treated cells was used as 0% cytotoxicity (High Control, HC).
GraphPad Prism(version 7.00) was used to calculate the IC50. Dose-response equation was used for the plot of % Effect vs Log 10 compound concentration with a variable slope and fixing the maximum to 100% and the minimum to 0%.

A further test concerns MEIS1 mRNA. The test is described as follows: MEIS1 mRNA expression assay (Quantigene Singleplex) in MOLM14 cells.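 Also: MEIS1 transcript levels read by probe hybridization and normalized to RPL28 mRNA, with IC50 fitted to fold changes across a rising compound concentration series.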 It counts as cell-based, human. Particulars: 48 hours incubation.
The mark [2] stands for this setting: HTRF-30 min incubation IC50, 30 min incubation.
The mark [3] stands for this setting: read-out: HTRF-30 min incubation IC50, 30 min incubation.

menin/MLL (terbium chelate-labeled menin, FITC-MBM1 peptide), sequence (O00255 other isoform, or with tags, fused parts or gaps): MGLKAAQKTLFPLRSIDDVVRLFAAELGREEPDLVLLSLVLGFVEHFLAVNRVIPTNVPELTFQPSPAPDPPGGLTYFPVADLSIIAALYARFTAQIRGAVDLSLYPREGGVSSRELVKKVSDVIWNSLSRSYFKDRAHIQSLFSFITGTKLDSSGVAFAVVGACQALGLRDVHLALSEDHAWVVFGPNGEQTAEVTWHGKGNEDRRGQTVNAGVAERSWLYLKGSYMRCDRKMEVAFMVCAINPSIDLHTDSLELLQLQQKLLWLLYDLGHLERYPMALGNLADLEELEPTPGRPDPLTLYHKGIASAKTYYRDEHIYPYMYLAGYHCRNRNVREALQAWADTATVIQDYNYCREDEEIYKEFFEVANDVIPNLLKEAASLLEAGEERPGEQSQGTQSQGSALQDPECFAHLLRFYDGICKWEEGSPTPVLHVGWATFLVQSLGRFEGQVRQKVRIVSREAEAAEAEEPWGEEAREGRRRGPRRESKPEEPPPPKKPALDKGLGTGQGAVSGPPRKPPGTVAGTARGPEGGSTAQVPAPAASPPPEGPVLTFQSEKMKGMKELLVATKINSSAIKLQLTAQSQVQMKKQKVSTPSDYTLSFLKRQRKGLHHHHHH

On to `CCN(C(=O)c1cc(F)ccc1Oc1nncnc1N1CCC2(C1)CN([C@@H](CCCCN)C(C)C)C2)C(C)C` (single isomer, unassigned) [Compound 210, (*S)-2-((5-(2-(7-amino-2-methylheptan-3-yl)-2,6-diazaspiro[3.4]octan-6-yl)-1,2,4-triazin-6-yl)oxy)-N-ethyl-5-fluoro-N-isopropylbenzamide], for which the pIC50 in test [1] (setting [2]) was 8.25; in the test with MOLM14 cells (Homo sapiens, MOLM-14, […]) it was less than 6.03; in the test with OCI-AML3 cells (Homo sapiens, OCI-AML-3, […]) it was 5.33; with MEIS1 mRNA (Homo sapiens, MOLM-14, 48 h), less than 6.00.

Consider `CC(C)[C@H](C[C@H](O)CN(C)C)N1CC2(CCN(c3ncnnc3Oc3ccc(F)cc3C(=O)N(C(C)C)C(C)C)C2)C1` (single isomer, unassigned) [Compound 369, 2-((5-(2-((3*S,5*S)-6-(dimethylamino)-5-hydroxy-2-methylhexan-3-yl)-2,6-diazaspiro[3.4]octan-6-yl)-1,2,4-triazin-6-yl)oxy)-5-fluoro-N,N-diisopropylbenzamide fumarate], for which the pIC50 in test [1] (setting [2]) was 8.74; in the test with MOLM14 cells (Homo sapiens, MOLM-14, […]), 6.38; in the test with MEIS1 mRNA (Homo sapiens, MOLM-14, 48 h) it was roughly 6.44.

In the case of `CC(C)[C@H](CCCN(C)C)N1CC2(CCN(c3ccnnc3Oc3ccc(F)cc3C(=O)N(C(C)C)C(C)C)C2)C1` (single isomer, unassigned) [Compound 76, (*S)-2-((4-(2-(6-(dimethylamino)-2-methylhexan-3-yl)-2,6-diazaspiro[3.4]octan-6-yl)pyridazin-3-yl)oxy)-5-fluoro-N,N-diisopropylbenzamide], the values for the pIC50 (in test [1] (setting [3]); in the test with MOLM14 cells; in the test with OCI-AML3 cells) were 8.59, 6.47 and 5.62, respectively.

Turning to `CCN(C(=O)c1cc(F)ccc1Oc1nncnc1N1CCC2(C1)CN(C(C(C)C)C(C)CCN(C)CCOC)C2)C(C)C` (single isomer, unassigned) [Compound 265, N-ethyl-5-fluoro-N-isopropyl-2-((5-(2-(6-((2-methoxyethyl)(methyl)amino)-2,4-dimethylhexan-3-yl)-2,6-diazaspiro[3.4]octan-6-yl)-1,2,4-triazin-6-yl)oxy)benzamide (mixture of R,S and S,R; or mixture of RR and S,S) fumarate], the pIC50 in test [1] (setting [2]) is 9.54; in the test on MOLM14 cells (Homo sapiens, MOLM-14, […]) it was 7.55; with OCI-AML3 cells (Homo sapiens, OCI-AML-3, […]), 7.21.

On to `CCN(C)C[C@@H](O)C[C@@H](C(C)C)N1CC2(CCN(c3ncnnc3Oc3ccc(F)cc3C(=O)N(CC)C(C)C)C2)C1` (single isomer, unassigned) [Compound 343, N-ethyl-2-((5-(2-((3*S,5S)-6-(ethyl(methyl)amino)-5-hydroxy-2-methylhexan-3-yl)-2,6-diazaspiro[3.4]octan-6-yl)-1,2,4-triazin-6-yl)oxy)-5-fluoro-N-isopropylbenzamide fumarate], for which the pIC50 in test [1] (setting [2]) was roughly 8.41; with MEIS1 mRNA (Homo sapiens, MOLM-14, 48 h), 6.28.

On to “N-ethyl-(2-(((3-(2-(5 ethyl(methyl)amino)-5-methoxy-2-methylhexan-3-yl-2,&6-diazaspiro[3.4]octan-6-yl)-1,2,4-triazin-6-yl)oxy)-5-fluoro-N-isopropylbenzamide [Compound 313]”, for which the pIC50 in test [1] (setting [3]) is 8.70; with MEIS1 mRNA, roughly 6.59.

For the compound `CCN(C(=O)c1cc(F)ccc1Oc1nncnc1N1CCC2(C1)CN([C@H](C[C@H](CN(C)C)OC)C(C)C)C2)C(C)C` (single isomer, unassigned) [Compound 314, 2-((5-(2-((3*R,5*R)-6-(dimethylamino)-5-methoxy-2-methylhexan-3-yl)-2,6-diazaspiro[3.4]octan-6-yl)-1,2,4-triazin-6-yl)oxy)-N-ethyl-5-fluoro-N-isopropylbenzamide fumarate], the pIC50 in test [1] (setting [2]) was 8.82; in the test with MOLM14 cells (Homo sapiens, MOLM-14, […]) it was 6.52; in the test on MEIS1 mRNA (Homo sapiens, MOLM-14, 48 h), 6.80.

As for `COCCN(C)CCC[C@H](C(C)C)N1CC2(CCN(c3ncnnc3Oc3ccc(F)cc3C(=O)N([13CH2][13CH3])[13CH]([13CH3])[13CH3])C2)C1.O=C(O)C(=O)O` [Compound 402], the pIC50 was 8.15 in the test with MOLM14 cells (Homo sapiens, MOLM-14, […]) and 7.40 with OCI-AML3 cells (Homo sapiens, OCI-AML-3, […]).
